Measurements published in PMC9137900, “Engineering Collariella virescens Peroxygenase for Epoxides Production from Vegetable Oil” (Antioxidants, 2022).
Changes are numbered by the printed parent chain.

Key:
Format in all cases: biochemical
[1] = molecular target: T1, rCviUPO (native, non-mutated recombinant CviUPO) (Achaetomiella virescens, UniProt Z9FBJ6W4Y2, T157A); experiment: GC-MS quantification of oxygenated products, […] min reactions; details: 24 mM H2O2, 50 mM phosphate pH 7, 20% acetone
T1 construct: codon-optimized gene in pET23a, expressed in E. coli as active cytosolic enzyme without purification tag; heme-thiolate (EC 1.11.2.1); purified by cation exchange and Superdex 75
T1 sequence (Z9FBJ6W4Y2 1-226 T157A): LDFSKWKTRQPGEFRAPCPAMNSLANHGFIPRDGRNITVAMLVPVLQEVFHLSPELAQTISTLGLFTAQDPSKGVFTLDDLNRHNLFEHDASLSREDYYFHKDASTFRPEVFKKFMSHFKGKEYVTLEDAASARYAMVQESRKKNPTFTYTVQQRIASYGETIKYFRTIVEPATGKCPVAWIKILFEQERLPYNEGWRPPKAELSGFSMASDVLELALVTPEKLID

[2] = molecular target: T2, rCviUPO (native, non-mutated recombinant CviUPO) (Achaetomiella virescens, UniProt Z9FBJ6W4Y2, F87A/T157A, form not given); experiment: as above; details: substrate inhibition constant; 24 mM H2O2, 50 mM phosphate pH 7, 20% acetone
T2 construct: codon-optimized gene in pET23a, expressed in E. coli as active cytosolic enzyme without purification tag; heme-thiolate (EC 1.11.2.1); purified by cation exchange and Superdex 75
T2 sequence (Z9FBJ6W4Y2 1-226 F87A/T157A): T1 sequence (Z9FBJ6W4Y2 1-226 T157A) with F87A

[3] = molecular target: T2, rCviUPO (native, non-mutated recombinant CviUPO); experiment: as above; details: 24 mM H2O2, 50 mM phosphate pH 7, 20% acetone; substrate-inhibition model
[4] = molecular target: T3, rCviUPO (native, non-mutated recombinant CviUPO) (Achaetomiella virescens, UniProt Z9FBJ6W4Y2, F87A); experiment: as above; details: substrate inhibition constant; 24 mM H2O2, 50 mM phosphate pH 7, 20% acetone
T3 construct: codon-optimized gene in pET23a, expressed in E. coli as active cytosolic enzyme without purification tag; heme-thiolate (EC 1.11.2.1); purified by cation exchange and Superdex 75
T3 sequence (Z9FBJ6W4Y2 1-226 F87A): T1 sequence (Z9FBJ6W4Y2 1-226 T157A) with F87A, A157T

[5] = molecular target: T4, rCviUPO (native, non-mutated recombinant CviUPO) (Achaetomiella virescens, UniProt Z9FBJ6W4Y2); experiment: as above; details: 24 mM H2O2, 50 mM phosphate pH 7, 20% acetone
T4 construct: codon-optimized gene in pET23a, expressed in E. coli as active cytosolic enzyme without purification tag; heme-thiolate (EC 1.11.2.1); purified by cation exchange and Superdex 75
T4 sequence (Z9FBJ6W4Y2 1-226): T1 sequence (Z9FBJ6W4Y2 1-226 T157A) with A157T

[6] = molecular target: T5, rCviUPO (native, non-mutated recombinant CviUPO) (Achaetomiella virescens, UniProt Z9FBJ6W4Y2, I60A/L63A/F87A/T157A, form not given); experiment: as above; details: 24 mM H2O2, 50 mM phosphate pH 7, 20% acetone; substrate-inhibition model
T5 construct: codon-optimized gene in pET23a, expressed in E. coli as active cytosolic enzyme without purification tag; heme-thiolate (EC 1.11.2.1); purified by cation exchange and Superdex 75
T5 sequence (Z9FBJ6W4Y2 1-226 I60A/L63A/F87A/T157A): T1 sequence (Z9FBJ6W4Y2 1-226 T157A) with I60A, L63A, F87A

[7] = molecular target: T5, rCviUPO (native, non-mutated recombinant CviUPO); experiment: as above; details: substrate inhibition constant; 24 mM H2O2, 50 mM phosphate pH 7, 20% acetone
[8] = molecular target: T3, rCviUPO (native, non-mutated recombinant CviUPO); experiment: as above; details: 24 mM H2O2, 50 mM phosphate pH 7, 20% acetone; substrate-inhibition model
[9] = molecular target: T2, rCviUPO (native, non-mutated recombinant CviUPO); experiment: spectrophotometric initial rates, […] nm; details: 24 mM H2O2, 0.1 M acetate pH 3 or 5

| SMILES | Km [1] [µM] | ki [2] [µM] | Km [3] [µM] | ki [4] [µM] | Km [5] [µM] | Km [6] [µM] | ki [7] [µM] | Km [8] [µM] | Km [9] [µM] |
| --- | --- | --- | --- | --- | --- | --- | --- | --- | --- |
| CCCCCCCC/C=C\CCCCCCCC(=O)O [C18:1, oleic acid] | 89 ± 16.4 | 2900 ± 610 | 51.6 ± 5.4 | 1120 ± 400 | 58.8 ± 6 | 399 ± 94.6 | 1360 ± 710 | 278 ± 49 | – |
| COc1ccc(CO)cc1OC [veratryl alcohol] | – | – | – | – | – | – | – | – | 15000 |
